Where a name gives a salt, the structure may show the parent alone. Read-outs that look alike come from different tables or passages of the source.
Tests used:
[1] = tested on: [^3 H]dofetilide binding site in guinea pig myocytes; conditions: cited from earlier work
[2] = tested on: IKr in guinea pig myocytes; conditions: cited from earlier work
[3] = tested on: IKr in rabbit ventricular myocytes; conditions: Carmeliet 1992, read-out: IC50 reported for IKr in rabbit ventricular myocytes; cited from earlier work
[4] = target: T1, [^3 H]dofetilide binding site in HL-1 cells (IKr) (Mus musculus, UniProt O35219); experiment: biochemical
T1 sequence (O35219 1-1162): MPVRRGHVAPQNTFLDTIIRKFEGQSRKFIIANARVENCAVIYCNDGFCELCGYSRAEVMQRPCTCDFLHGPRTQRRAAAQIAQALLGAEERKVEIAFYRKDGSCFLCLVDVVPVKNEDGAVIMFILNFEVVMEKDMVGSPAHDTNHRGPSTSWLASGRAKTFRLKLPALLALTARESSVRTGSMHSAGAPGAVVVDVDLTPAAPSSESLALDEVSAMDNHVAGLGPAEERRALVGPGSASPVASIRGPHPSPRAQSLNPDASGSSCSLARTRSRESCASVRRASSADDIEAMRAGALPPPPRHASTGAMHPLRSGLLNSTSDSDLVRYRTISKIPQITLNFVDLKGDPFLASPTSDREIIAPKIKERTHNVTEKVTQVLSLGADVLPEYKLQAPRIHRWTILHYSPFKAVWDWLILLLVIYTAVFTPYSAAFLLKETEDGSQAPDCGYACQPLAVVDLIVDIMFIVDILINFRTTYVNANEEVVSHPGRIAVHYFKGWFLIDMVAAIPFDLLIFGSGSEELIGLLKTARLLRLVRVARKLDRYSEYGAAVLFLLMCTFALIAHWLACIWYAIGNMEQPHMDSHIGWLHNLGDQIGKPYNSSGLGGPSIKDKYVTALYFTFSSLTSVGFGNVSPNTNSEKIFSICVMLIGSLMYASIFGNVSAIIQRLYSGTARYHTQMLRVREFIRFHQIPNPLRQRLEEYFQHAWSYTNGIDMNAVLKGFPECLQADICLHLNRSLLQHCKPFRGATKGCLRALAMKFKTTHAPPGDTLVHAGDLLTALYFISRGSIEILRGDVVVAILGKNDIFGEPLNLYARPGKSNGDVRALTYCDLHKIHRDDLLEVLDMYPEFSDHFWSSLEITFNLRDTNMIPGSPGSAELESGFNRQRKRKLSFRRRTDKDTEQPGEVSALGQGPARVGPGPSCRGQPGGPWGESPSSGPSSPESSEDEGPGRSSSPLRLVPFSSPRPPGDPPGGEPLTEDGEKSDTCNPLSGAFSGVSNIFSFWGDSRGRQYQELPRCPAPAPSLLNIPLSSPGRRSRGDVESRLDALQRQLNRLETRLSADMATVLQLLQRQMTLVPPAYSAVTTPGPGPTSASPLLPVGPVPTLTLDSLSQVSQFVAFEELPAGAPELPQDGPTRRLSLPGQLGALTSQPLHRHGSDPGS
Method: HL-1 cells from passages 60 to 80 are dissociated from tissue culture flasks with a 5 min incubation with 0.1% trypsin (Clonetics, San Diego) followed by inactivation in a trypsin neutralizing solution (Clonetics, San Diego). The cells are suspended in a buffer containing (mM) KCl 40, KH2 PO4 20, MgCl2 5, KHCO3 0.5, glucose 10, potassium glutamate5 0, potassium asparate 20, EGTA 1 and HEPES (N-[2-Hydroxyethyl]piperazine-N'-[2-ethanesulfonic acid]) 10, adjusted to pH 7.4 with KOH and containing 0.1% bovine serum albumin (BSA). […] The cells are then filtered on GF/C Unifilter® 96 well filter plates (Packard, Meriden, Conn.) using a Packard Micromate496® harvester. Filter plates are presoaked with wash buffer (25 mM Tris-HCl, 130 mM NaCl, 5.5 mM KCl, 0.8 mM MgCl2 and 50 μM CaCl2 [pH 7.4]) containing 1.0% BSA and washed following harvesting at room temperature with four ×1 ml washes of the same buffer without BSA.

HL-1 cells = experiment: Contractile activity (spontaneous beating) of HL-1 cells; format: cell-based, mouse
Method: CONTRACTILE ACTIVITY OF HL-1 CELLS
HL-1 cells are found to respond to several pharmacological agents in a manner expected for cardiomyocytes. Confluent cultures of HL-1 cells at passage 33 in growth medium (without norepinephrine or retinoic acid) display spontaneous contractile activity (beating).
In other experiments, spontaneously beating confluent HL-1 cells in growth medium are stopped by adding propranolol. First, norepinephrine bitartrate is added to a final concentration of 10^-5 M. Under these stimulated conditions, propranolol is subsequently added.
To determine if the effect of 10^-4 M propranolol is reversible, the culture medium containing propranolol is removed and growth medium (without norepinephrine or retinoic acid) is added to the cell cultures.

guinea pig myocytes = conditions: read-out: Kd for [^3 H]dofetilide binding in guinea pig myocytes, mean+/-SD, n=3, Chadwick et al; cited from earlier work

In the case of CN(CCOc1ccc(NS(C)(=O)=O)cc1)CCc1ccc(NS(C)(=O)=O)cc1 [dofetilide], the Kd ([1]; read-out: Kd, competition for [^3 H]dofetilide binding, Cardiac Myocytes, primary guinea pig myocytes, Chadwick et al, SEM and N in own columns) is given as 100 nM, the IC50 ([2]; Jurkiewicz and Sanguinetti 1993, read-out: IC50 reported for IKr in guinea pig myocytes) is given as 31 nM and the IC50 [3] is given as 4 nM.
For CN1CCN(CCCCN2C(=O)CN(/N=C/c3ccc(-c4ccc(Cl)cc4)o3)C2=O)CC1 [azimilide dihydrochloride], the IC50 ([2]; Fermini et al 1995, read-out: IC50 for blocking the rapidly activating component of the delayed rectifier IKr) is given as 400 nM and the Kd [4] is given as 800 nM.
For COc1ccc(CCN(C)CCCC(C#N)(c2ccc(OC)c(OC)c2)C(C)C)cc1OC (centres unmarked) [verapamil hydrochloride], the “contractile activity after addition of drug” value (HL-1 cells; final concentrations of 10^-7 M, 10^-6 M and 10^-5 M, growth medium without norepinephrine or retinoic acid) was “no observable contractile activity”.
For CC(C)NCC(O)COc1cccc2ccccc12 (centres unmarked) [propranolol], the “time to arrest of all contractions” value (HL-1 cells; final concentration 10^-4 M, after 10^-5 M norepinephrine bitartrate) was at most 10 min, the arrest of contractions (HL-1 cells; final concentration 10^-4 M, after stimulation with 10^-5 M norepinephrine bitartrate, within 10 minutes) was “arrests all contractions” and the “effect on contractile activity” value (HL-1 cells; final concentrations of 10^-7 M, 10^-6 M, and 10^-5 M, after 10^-5 M norepinephrine bitartrate) was “no observable effect”. The “time to recovery of contractile activity after removal of drug” value (HL-1 cells; previously exposed to 10^-4 M (printed 10^31 4 M)) was at most 1 h and the “reversibility: contractile activity after removal of drug” value (HL-1 cells; previously exposed to 10^-4 M (printed 10^31 4 M), within 1 hour after medium change) was “contractile activity similiar to control HL-1 cell not exposed to propranolol”.
For NC[C@H](O)c1ccc(O)c(O)c1 [norepinephrine bitartrate], the “contractile activity (beating) of HL-1 cells” value (HL-1 cells; final concentration 10^-5 M, passage 33, within two minutes, growth medium without norepinephrine or retinoic acid) was “beating faster”.
For [3H]c1cc(OCCN(C)CCc2ccc(NS(C)(=O)=O)cc2)ccc1NS(C)(=O)=O [[^3 H]dofetilide], the Kd (guinea pig myocytes) is given as 70 ± 6 nM.
In the case of CCCCCCC[N+](CC)(CC)CCCCc1ccc(Cl)cc1 [clofilium], the Kd ([1]; cardiac myocytes) is given as 1290 nM.
